Data from ChEMBL document CHEMBL4811288, “Linderapyrone: A Wnt signal inhibitor isolated from Lindera umbellata” (Bioorg Med Chem Lett, 2021).
Calls of active or inactive are those of the source. The calls are words filed in the database; no cut-off is given here.

What was measured:
HEK293 = test: Inhibition of Wnt signalling in HEK293 cells harbouring TCF/beta-catenin luciferase reporter gene assessed as TCF/beta-catenin transcriptional activity at 30 to 60 uM by TOPFlash luciferase assay; format: cell-based; settings: Homo sapiens, dose 30-60 µM
HT-29 = test: Cytotoxicity against human HT-29 cells assessed as cell viability at 1.563 to 50 uM measured after 72 hrs by plate reader method; format: functional, cell-based; settings: for IC50: HT-29, 72 h

Structure (SMILES)	Activity (HEK293)	IC50 (HT-29) [µM]	Activity (HT-29; dose 1.563-50 µM)
CC1=CC(=O)C(C(C)C)CC1 (racemic)	inactive	–	–
Cc1cc2c(c(=O)o1)[C@H]1C[C@](C)(CC[C@H]1C(C)C)O2	Active	–	–
CC(C)[C@H]1CC[C@@]2(C)C[C@@H]1c1c(cc(/C=C/c3ccccc3)oc1=O)O2	Active	8.2	–
CC(C)[C@H]1CC[C@]2(C)C[C@H]1c1c(cc(/C=C/c3ccccc3)oc1=O)O2	Active	–	–
O=C1[C@H](Cc2ccc(O)cc2)N2C(=O)CCN(C(=O)NCc3ccccc3)[C@H]2CN1Cc1cccc2ccccc12	–	10.8	–
Cc1cc(O)cc(=O)o1	inactive	–	–
COc1cc(/C=C/c2ccccc2)oc(=O)c1	inactive	–	–
CC(C)[C@H]1CC[C@@]2(C)C[C@@H]1c1c(cc(/C=C/c3cccs3)oc1=O)O2	Active	–	Active
COc1cc(O)c(C(=O)/C=C/c2ccccc2)c2c1[C@@H]1[C@@H](C(C)C)CC[C@](C)(O)[C@@H]1O2	inactive	–	–
Cc1cc2c(c(=O)o1)[C@H]1C[C@](C)(CC[C@@H]1C(C)C)O2	Active	–	–
CC(C)[C@@H]1CC[C@@]2(C)C[C@@H]1c1c(cc(/C=C/c3ccccc3)oc1=O)O2	Active	32.4	–
